The source of these data is patent US8809331B2 (Genentech, Inc., priority 2011, dated 2014).

T1 sequence (Q5S007 whole entry G2019S): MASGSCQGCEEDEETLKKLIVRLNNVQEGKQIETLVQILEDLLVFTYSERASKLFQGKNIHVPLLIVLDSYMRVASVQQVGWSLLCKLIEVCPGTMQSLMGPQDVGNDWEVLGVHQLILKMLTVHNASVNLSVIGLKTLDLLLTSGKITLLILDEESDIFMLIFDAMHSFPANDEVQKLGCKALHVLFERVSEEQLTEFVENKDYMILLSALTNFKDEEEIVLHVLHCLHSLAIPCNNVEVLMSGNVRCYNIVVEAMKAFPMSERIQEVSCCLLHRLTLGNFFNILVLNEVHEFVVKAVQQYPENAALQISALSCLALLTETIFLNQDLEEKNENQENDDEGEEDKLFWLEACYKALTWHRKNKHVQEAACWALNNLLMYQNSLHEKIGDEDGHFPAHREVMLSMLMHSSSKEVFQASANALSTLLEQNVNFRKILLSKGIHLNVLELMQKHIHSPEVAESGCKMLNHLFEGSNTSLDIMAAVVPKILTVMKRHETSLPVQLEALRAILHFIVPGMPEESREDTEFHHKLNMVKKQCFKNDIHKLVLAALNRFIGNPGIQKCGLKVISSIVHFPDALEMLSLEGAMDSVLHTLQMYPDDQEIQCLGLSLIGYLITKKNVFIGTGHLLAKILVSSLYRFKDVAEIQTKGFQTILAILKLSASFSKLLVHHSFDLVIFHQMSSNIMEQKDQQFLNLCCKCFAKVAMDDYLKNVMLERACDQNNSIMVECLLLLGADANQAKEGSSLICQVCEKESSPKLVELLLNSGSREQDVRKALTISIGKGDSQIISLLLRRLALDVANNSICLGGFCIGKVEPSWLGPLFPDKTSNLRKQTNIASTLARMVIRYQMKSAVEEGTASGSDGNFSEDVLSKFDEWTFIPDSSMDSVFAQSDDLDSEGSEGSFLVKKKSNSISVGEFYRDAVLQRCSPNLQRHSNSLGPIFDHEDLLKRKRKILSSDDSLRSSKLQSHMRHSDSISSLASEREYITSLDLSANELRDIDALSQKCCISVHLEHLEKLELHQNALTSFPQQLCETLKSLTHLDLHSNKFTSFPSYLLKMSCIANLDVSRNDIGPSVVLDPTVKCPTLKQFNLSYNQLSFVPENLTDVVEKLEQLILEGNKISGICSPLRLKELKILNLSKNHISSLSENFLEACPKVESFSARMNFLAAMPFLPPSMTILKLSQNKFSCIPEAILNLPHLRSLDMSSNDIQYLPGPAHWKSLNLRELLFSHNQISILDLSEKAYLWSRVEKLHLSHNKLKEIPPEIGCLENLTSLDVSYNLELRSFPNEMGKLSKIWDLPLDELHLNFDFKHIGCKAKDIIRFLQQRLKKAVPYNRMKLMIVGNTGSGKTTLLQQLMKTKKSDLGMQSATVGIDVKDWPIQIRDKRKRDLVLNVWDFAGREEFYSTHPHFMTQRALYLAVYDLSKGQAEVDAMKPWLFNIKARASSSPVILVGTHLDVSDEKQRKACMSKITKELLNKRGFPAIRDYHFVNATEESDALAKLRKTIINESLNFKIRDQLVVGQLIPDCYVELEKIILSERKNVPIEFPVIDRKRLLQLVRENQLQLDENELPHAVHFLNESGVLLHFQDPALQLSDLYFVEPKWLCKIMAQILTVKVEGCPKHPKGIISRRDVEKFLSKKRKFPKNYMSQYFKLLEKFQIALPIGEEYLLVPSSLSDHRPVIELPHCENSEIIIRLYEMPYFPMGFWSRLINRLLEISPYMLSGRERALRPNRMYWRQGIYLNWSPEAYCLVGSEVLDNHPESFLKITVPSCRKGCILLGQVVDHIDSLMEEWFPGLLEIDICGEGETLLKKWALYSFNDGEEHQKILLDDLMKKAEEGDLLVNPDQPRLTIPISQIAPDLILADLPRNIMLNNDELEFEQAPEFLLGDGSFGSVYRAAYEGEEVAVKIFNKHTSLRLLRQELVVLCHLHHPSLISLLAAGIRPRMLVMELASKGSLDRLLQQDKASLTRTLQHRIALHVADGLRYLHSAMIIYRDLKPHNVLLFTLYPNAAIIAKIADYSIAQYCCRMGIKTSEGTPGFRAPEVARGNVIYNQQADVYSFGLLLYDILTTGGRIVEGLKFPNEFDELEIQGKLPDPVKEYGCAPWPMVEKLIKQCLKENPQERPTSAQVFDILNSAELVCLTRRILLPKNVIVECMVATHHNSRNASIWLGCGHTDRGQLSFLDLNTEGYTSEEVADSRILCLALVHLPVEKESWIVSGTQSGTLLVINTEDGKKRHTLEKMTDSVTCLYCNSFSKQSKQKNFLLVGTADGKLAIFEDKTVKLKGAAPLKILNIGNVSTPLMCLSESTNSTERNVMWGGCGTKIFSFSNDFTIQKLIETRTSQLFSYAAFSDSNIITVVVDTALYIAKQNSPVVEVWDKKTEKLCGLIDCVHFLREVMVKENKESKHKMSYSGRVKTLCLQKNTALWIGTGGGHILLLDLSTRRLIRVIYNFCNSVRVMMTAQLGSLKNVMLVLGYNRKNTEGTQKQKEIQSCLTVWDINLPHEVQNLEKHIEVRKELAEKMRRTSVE

One experiment has as its target T1, LRRK2 (Homo sapiens, UniProt Q5S007, G2019S).
T1 construct: purchased Invitrogen PV4882
The experiment is described as follows: In Vitro LRRK2 LabChip Assay (LRRK2 Ki). Particulars: Table 5 compounds (formula I). Format: biochemical. As for the experimental part: In Vitro LRRK2 LabChip Assay
This assay was used to determine a compound's potency in inhibiting activity of LRRK2 by determining, Kiapp, IC50, or percent inhibition values. In a polypropylene plate, LRRK2, fluorescently-labeled peptide substrate, ATP and test compound were incubated together. Using a LabChip 3000 (Caliper Life Sciences), after the reaction the substrate was separated by capillary electrophoresis into two populations: phosphorylated and unphosphorylated. The relative amounts of each were quantitated by fluorescence intensity. LRRK2 Ki was determined according to the equation: Y=V0*(1−((x+Ki*(1+S/Km)+Et)/(2*Et)−(((x+Ki*(1+S/Km)+Et)^2−(4*Et*x))^0.5)/(2*Et))). Ki values in Table 4 and elsewhere herein are shown in μM.
Assay conditions and materials used were as follows:
LRRK2 Wild type in 5 mM MgCl2: 15 nM (Invitrogen lot #500607F)
Kinase reaction time: 2 hours
Wild type in 5 mM MgCl2: 80 μM
Solid Support: Black 50 μL volume polypropylene 384 well plate (MatriCal cat # MP101-1-PP)
Kinase: LRRK2 G2019S (Invitrogen cat #PV4882). • LRRK2 Wild type (Invitrogen cat #PV4874).
Substrate: 5FAM-[…]-CONH2
Non-binding plate: 384 well clear V-bottom polypropylene plates (Greiner cat #781280).
ATP: 10 mM ATP (Cell Signaling cat #9804).
Coating Reagent #3: Coating Reagent #3 (Caliper).
Complete Reaction Buffer: H2O/25 mM Tris, pH 8.0/5 mM MgCl2/2 mM DTT/0.01% Triton X-100.
Stop Solution: H2O/100 mM HEPES, pH 7.2/0.015% Brij-35/0.2% Coating Reagent #3/20 mM EDTA.
Separation Buffer: H2O/100 mM HEPES, pH 7.2/0.015% Brij-35/0.1% Coating Reagent #3/1:200 Coating Reagent #8/10 mM EDTA/5% DMSO.
Compound Plate Preparation:
For serial dilutions, 34.6 μl DMSO was added to columns 3-24. For the assay controls, 37.5 μl DMSO was added to columns 1 and 2 of rows A and P. a, d and 50 μl 25 μM G-028831 (Staurosporine) was added to columns 1 and 2, row B. For the samples: to start at 100 μM, 37.5 μl DMSO was to columns 1 and 2, then 12.5 μl 10 mM compound; to start at 10 μM, 78 μl DMSO was added to columns 1 & 2, then 2 μl 10 mM compound; and to start at 1 μM, 25 μM compound (2 μl 10 mM cmpd+798 μl DMSO) was added to empty columns 1 and 2. A Precision instrument was used to perform 1:3.16 serial dilutions (“PLK_BM_serial_halflog”).
ATP was diluted to 282.1 μM in Complete Kinase Buffer (final concentration was 130 μM).
Total and Blank Preparation:
In Complete Reaction Buffer, substrate was diluted to 4 μM. Equal volumes of Complete Reaction Buffer and 4 μM substrate were combined to obtain the blank. Equal volumes of Complete Reaction Buffer and 4 μM substrate were combined and to the combined solution was added 2× final LRRK2 concentration.
To a 50 μl polypropylene plate, 5 μl/well buffer/substrate was added by hand to Blank wells. A Biomek FX was used to start the kinase reaction (“PLK SAR 23 ATP”). The following were added to the appropriate wells:
5 μl/well compound/ATP in Assay Plate;
5 μl/well kinase/substrate in Assay Plate;
The plate was incubated for 2 hours in the dark. Biomek FX was used to stop the kinase reaction (“PLK Stop”), and 10 μl/well Stop solution was added to the Assay Plate. Results were read on the LabChip 3000.
The LabChip 3000 was run using the job “LRRK2 IC50” with the following job settings:
Downstream voltage: −500 V
Upstream voltage: −2350 V
Post sample buffer sip time: 75 seconds
Post dye buffer sip time: 75 seconds
Final delay time: 200 seconds
As to `CCNc1nc(Nc2cc(OCF)c(C(=O)N3CCCC3)cc2Cl)ncc1C(F)(F)F` [Compound 111, [5-Chloro-4-(4-ethylamino-5-trifluoromethyl-pyrimidin-2-ylamino)-2-fluoromethoxy-phenyl]-pyrrolidin-1-yl-methanone], the Ki – broadly, a dissociation constant, usually derived from enzyme kinetics or from competition with a known ligand – was found to be 1.68 nM.

In turn, `O=C(c1ccc(Nc2ncc(C(F)(F)F)c(NC3CC3)n2)c(F)c1F)N1CCOCC1` [Compound 51, [4-(4-Cyclopropylamino-5-trifluoromethyl-pyrimidin-2-ylamino)-2,3-difluoro-phenyl]-morpholin-4-yl-methanone] displayed a Ki of 2.28 nM.

With `CNc1nc(Nc2cc(C)c(C(=O)N3CCOCC3)cc2OC)ncc1C(F)(F)F` [Compound 3, [5-Methoxy-2-methyl-4-(4-methylamino-5-trifluoromethyl-pyrimidin-2-ylamino)-phenyl]-morpholin-4-yl-methanone], the Ki turned out to be 1.43 nM.

On to `CCNc1nc(Nc2cc(F)c(C(=O)NCC(C)(C)O)cc2OC)ncc1C(F)(F)F` [Compound 18, 4-(4-Ethylamino-5-trifluoromethyl-pyrimidin-2-ylamino)-2-fluoro-N-(2-hydroxy-2-methyl-propyl)-5-methoxy-benzamide], for which the Ki came to 0.429 nM. This Ki lies about 3.3-fold lower than the previous one.

`CCNc1nc(Nc2cc(F)c(C(=O)N3CCOCC3)cc2C)ncc1C(F)(F)F` [Compound 118, [4-(4-Ethylamino-5-trifluoromethyl-pyrimidin-2-ylamino)-2-fluoro-5-methyl-phenyl]-morpholin-4-yl-methanone] registered a Ki of 2.76 nM.

`CCOc1nc(Nc2cc(C)c(C(=O)N3CCOCC3)cc2OC)ncc1Cl` [Compound 94, [4-(5-Chloro-4-ethoxy-pyrimidin-2-ylamino)-5-methoxy-2-methyl-phenyl]-morpholin-4-yl-methanone]: the Ki was 2.97 nM. This Ki and that of the molecule before are within 1.5-fold of each other.

`O=C(c1cc(Cl)c(Nc2ncc(C(F)(F)F)c(NC3CC3)n2)cc1OCF)N1CCOCC1` [Compound 102, [5-Chloro-4-(4-cyclopropylamino-5-trifluoromethyl-pyrimidin-2-ylamino)-2-fluoromethoxy-phenyl]-morpholin-4-yl-methanone] yielded a Ki of 708 nM.

In turn, `CCNc1nc(Nc2cc(F)c(C(=O)N(C)CC(C)(C)O)cc2OC)ncc1C(F)(F)F` [Compound 19, 4-(4-Ethylamino-5-trifluoromethyl-pyrimidin-2-ylamino)-2-fluoro-N-(2-hydroxy-2-methyl-propyl)-5-methoxy-N-methyl-benzamide] returned a Ki of 1.94 nM.

Consider `COc1cc(C(=O)N2CCOCC2)c(F)cc1Nc1ncc(C(F)(F)F)c(N[C@@H]2C[C@@H]2F)n1` [Compound 75, {2-Fluoro-4-[4-((1R,2S)-2-fluoro-cyclopropylamino)-5-trifluoromethyl-pyrimidin-2-ylamino]-5-methoxy-phenyl}-morpholin-4-yl-methanone], for which the Ki amounted to 2.19 nM.

In the case of `CCNc1nc(Nc2cc(OC)c(C(=O)N3CC[C@H](F)C3)cc2F)ncc1C#N` [Compound 81, 4-Ethylamino-2-[2-fluoro-4-((S)-3-fluoro-pyrrolidine-1-carbonyl)-5-methoxy-phenylamino]-pyrimidine-5-carbonitrile], the Ki turned out to be 51.6 nM.

For `CNc1nc(Nc2cc(F)c(C(=O)N3C[C@H](F)[C@@H](F)C3)cc2OC)ncc1C(F)(F)F` [Compound 36, ((3S,4S)-3,4-Difluoro-pyrrolidin-1-yl)-[2-fluoro-5-methoxy-4-(4-methylamino-5-trifluoromethyl-pyrimidin-2-ylamino)-phenyl]-methanone], the Ki turned out to be 4.42 nM.

`CNc1nc(Nc2ccc(C(=O)N3CCOCC3)c(C)c2OC)ncc1C(F)(F)F` [Compound 33, [3-Methoxy-2-methyl-4-(4-methylamino-5-trifluoromethyl-pyrimidin-2-ylamino)-phenyl]-morpholin-4-yl-methanone] had a Ki of 114 nM.

`CNc1nc(Nc2cc(OC)c(C(=O)N3C[C@@H]4C[C@H]3CO4)cc2Cl)ncc1C(F)(F)F` [Compound 15, [5-Chloro-2-methoxy-4-(4-methylamino-5-trifluoromethyl-pyrimidin-2-ylamino)-phenyl]-(1S,4S)-2-oxa-5-aza-bicyclo[2.2.1]hept-5-yl-methanone] displayed a Ki of 2.55 nM.

Consider `COc1cc(C(=O)N2CCOCC2)c(C)cc1Nc1ncc(C(F)(F)F)c(NC2CCC2)n1` [Compound 129, [4-(4-Cyclobutylamino-5-trifluoromethyl-pyrimidin-2-ylamino)-5-methoxy-2-methyl-phenyl]-morpholin-4-yl-methanone], for which the affinity corresponds to a Ki of 0.31 nM. Compared with the last molecule, the Ki is about 8.2-fold lower.

In the case of `CNc1nc(Nc2cc(C)c(C(=O)N3CCOCC3)cc2F)ncc1C(F)(F)F` [Compound 73, [5-Fluoro-2-methyl-4-(4-methylamino-5-trifluoromethyl-pyrimidin-2-ylamino)-phenyl]-morpholin-4-yl-methanone], the affinity, expressed as Ki, was 4.97 nM.

As to `CNc1nc(Nc2cc(C)c(C(=O)N3CCOCC3)cc2OCF)ncc1C(F)(F)F` [Compound 88, [5-Fluoromethoxy-2-methyl-4-(4-methylamino-5-trifluoromethyl-pyrimidin-2-ylamino)-phenyl]-morpholin-4-yl-methanone], the Ki stood at 1.01 nM.

In turn, `COc1nc(Nc2cc(C)c(C(=O)N3CCCC3)cc2OCF)ncc1Cl` [Compound 119, [4-(5-Chloro-4-methoxy-pyrimidin-2-ylamino)-5-fluoromethoxy-2-methyl-phenyl]-pyrrolidin-1-yl-methanone] yielded a Ki of 11.2 nM.

`CNc1nc(Nc2cc(OC)c(C(=O)N3CC(N4CCOCC4)C3)cc2Cl)ncc1C(F)(F)F` [Compound 20, [5-Chloro-2-methoxy-4-(4-methylamino-5-trifluoromethyl-pyrimidin-2-ylamino)-phenyl]-(3-morpholin-4-yl-azetidin-1-yl)-methanone]: the affinity, expressed as Ki, was 3.12 nM.

As for `CNc1nc(Nc2cc(F)c(C(=O)N3CCOCC3)cc2OCCF)ncc1C(F)(F)F` [Compound 48, [2-Fluoro-5-(2-fluoro-ethoxy)-4-(4-methylamino-5-trifluoromethyl-pyrimidin-2-ylamino)-phenyl]-morpholin-4-yl-methanone], the Ki was found to be 3.48 nM.

`CNc1nc(Nc2cc(OC)c(C(=O)N(C)CC(C)(C)O)cc2F)ncc1C(F)(F)F` [Compound 29, 5-Fluoro-N-(2-hydroxy-2-methyl-propyl)-2-methoxy-N-methyl-4-(4-methylamino-5-trifluoromethyl-pyrimidin-2-ylamino)-benzamide] returned a Ki of 19.5 nM. Against the preceding molecule, the Ki is about 5.6-fold higher.

`CNc1nc(Nc2cc(O)c(C(=O)N3CCOCC3)cc2Cl)ncc1C(F)(F)F` [Compound 10, [5-Chloro-2-hydroxy-4-(4-methylamino-5-trifluoromethyl-pyrimidin-2-ylamino)-phenyl]-morpholin-4-yl-methanone] registered a Ki of 11.6 nM.

For `COc1cc(C(=O)N2CCOCC2)c(F)cc1Nc1ncc(C(F)(F)F)c(N2CCC2)n1` [Compound 26, [4-(4-Azetidin-1-yl-5-trifluoromethyl-pyrimidin-2-ylamino)-2-fluoro-5-methoxy-phenyl]-morpholin-4-yl-methanone], the Ki was found to be 31.5 nM.

The molecule `COc1cc(Nc2ncc(C(F)(F)F)c(NC3CCC3)n2)c(Cl)cc1C(=O)N1CCOCC1` [Compound 113, [5-Chloro-4-(4-cyclobutylamino-5-trifluoromethyl-pyrimidin-2-ylamino)-2-methoxy-phenyl]-morpholin-4-yl-methanone] had a Ki of 0.326 nM.

Staying with this experiment, now noted: Table 6 compounds (formula II/III, fused ring).
In turn, `CNc1nc(Nc2cc(C)c(C(=O)N3CCOCC3)cc2OC)ncc1C(F)(F)F` [Compound 3, [5-Methoxy-2-methyl-4-(4-methylamino-5-trifluoromethyl-pyrimidin-2-ylamino)-phenyl]-morpholin-4-yl-methanone] had a Ki of 1.08 nM. This lies in the single-digit nanomolar range.
